The results in this text go back to US11512053B2, “Arginine methyltransferase inhibitors and uses thereof” (priority 2013, dated 2022).

The structures appear in SMILES notation.

This assay concerns the target full-length human PRMT8 isoform 1 (Homo sapiens, UniProt Q9NR22). Nature of the assay: PRMT8 Biochemical Assay (3H-SAM Flashplate, peptide substrate). The conditions noted are these: single experiment or average of multiple experiments; read-out: Biochemical IC50 PRMT8. The method, boiled down: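 Scintillation Flashplate capture of biotinylated histone H4 (31-45) peptide (150 nM) methylated by 1.5 nM PRMT8 using 3H-SAM (50 nM) with unlabelled SAM (550 nM); enzyme and compound preincubated 30 min, room temperature, in Bicine pH 7.6 buffer with TCEP, BSG, Tween 20 and 2% DMSO. Stopped with excess cold SAM (400 uM); IC50 from % inhibition, min control 1 mM SAH.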

Sequence of full-length human PRMT8 isoform 1 (Q9NR22 whole entry, canonical isoform): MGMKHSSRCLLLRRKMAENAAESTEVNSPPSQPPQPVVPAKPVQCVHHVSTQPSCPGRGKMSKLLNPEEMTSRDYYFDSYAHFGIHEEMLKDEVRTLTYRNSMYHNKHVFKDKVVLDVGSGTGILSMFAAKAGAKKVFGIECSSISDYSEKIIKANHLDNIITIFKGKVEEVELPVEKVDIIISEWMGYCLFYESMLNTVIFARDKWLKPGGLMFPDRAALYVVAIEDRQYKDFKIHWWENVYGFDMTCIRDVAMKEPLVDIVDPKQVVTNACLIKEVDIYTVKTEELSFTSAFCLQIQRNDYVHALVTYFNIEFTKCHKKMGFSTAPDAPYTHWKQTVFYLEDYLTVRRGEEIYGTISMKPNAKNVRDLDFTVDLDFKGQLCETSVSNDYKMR

As a reminder, the IC50 is the midpoint of a concentration-inhibition curve. With `CNCCN(C)Cc1c[nH]nc1C#Cc1ccccc1` [Compound 3], the IC50 worked out at 950 nM.
